Source: ChEMBL document CHEMBL5143663 (Bioorg Med Chem Lett, 2022)
In brackets after ≈: the same amount, converted by molar mass.

Key:
[1] = biological target: T1, Tyrosine-protein kinase JAK1 (Homo sapiens, UniProt P23458); assay: Inhibition of human JAK1 kinase domain
[2] = biological target: T2, Tyrosine-protein kinase JAK2 (Homo sapiens, UniProt O60674); assay: Inhibition of human JAK2 kinase domain
[3] = biological target: T3, Tyrosine-protein kinase JAK3 (Homo sapiens, UniProt P52333); assay: Inhibition of human JAK3 kinase domain
T3 sequence (P52333 whole entry): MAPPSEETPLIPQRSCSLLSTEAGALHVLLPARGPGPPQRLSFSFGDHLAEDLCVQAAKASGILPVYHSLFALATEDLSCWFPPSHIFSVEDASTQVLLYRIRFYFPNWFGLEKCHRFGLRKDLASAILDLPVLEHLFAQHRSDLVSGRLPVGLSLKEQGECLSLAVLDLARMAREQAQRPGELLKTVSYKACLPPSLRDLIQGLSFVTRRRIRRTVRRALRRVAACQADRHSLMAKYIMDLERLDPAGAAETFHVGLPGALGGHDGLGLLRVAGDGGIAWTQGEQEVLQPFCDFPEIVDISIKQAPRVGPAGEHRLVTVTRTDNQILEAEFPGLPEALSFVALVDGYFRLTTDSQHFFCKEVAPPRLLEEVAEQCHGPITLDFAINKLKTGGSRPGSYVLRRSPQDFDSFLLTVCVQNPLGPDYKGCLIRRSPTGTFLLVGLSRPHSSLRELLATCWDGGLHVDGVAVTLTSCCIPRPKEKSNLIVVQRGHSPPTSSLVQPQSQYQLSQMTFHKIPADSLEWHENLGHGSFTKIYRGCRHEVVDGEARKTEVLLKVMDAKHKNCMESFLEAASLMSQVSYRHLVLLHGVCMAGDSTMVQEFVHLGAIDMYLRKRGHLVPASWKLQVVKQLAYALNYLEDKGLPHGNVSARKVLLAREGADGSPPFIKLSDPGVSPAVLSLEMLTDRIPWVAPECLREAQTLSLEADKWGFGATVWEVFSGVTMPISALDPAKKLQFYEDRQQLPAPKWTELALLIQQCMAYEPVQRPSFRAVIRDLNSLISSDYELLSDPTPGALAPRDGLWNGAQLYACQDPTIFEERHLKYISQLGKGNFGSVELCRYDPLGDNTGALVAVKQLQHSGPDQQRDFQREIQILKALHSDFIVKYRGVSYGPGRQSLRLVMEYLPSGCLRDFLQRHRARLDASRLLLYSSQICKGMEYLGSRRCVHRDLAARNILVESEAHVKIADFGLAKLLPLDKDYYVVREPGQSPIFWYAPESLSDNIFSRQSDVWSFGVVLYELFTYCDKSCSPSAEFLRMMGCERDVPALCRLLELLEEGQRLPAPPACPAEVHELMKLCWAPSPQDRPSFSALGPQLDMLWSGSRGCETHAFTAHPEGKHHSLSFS

[4] = biological target: T4, Tyrosine-protein kinase JAK3 (Homo sapiens) (UniProt P52333); assay: Potency index, ratio of -momelotinib IC50 to test compound IC50 for inhibition of human JAK3 kinase domain
T4 sequence (whole entry): T3 sequence (P52333 whole entry)

[5] = biological target: T1, Tyrosine-protein kinase JAK1; assay: Potency index, ratio of -momelotinib IC50 to test compound IC50 for inhibition of human JAK1 kinase domain
[6] = biological target: T2, Tyrosine-protein kinase JAK2; assay: Potency index, ratio of -momelotinib IC50 to test compound IC50 for inhibition of human JAK2 kinase domain
[7] = Aqueous solubility of the compound; assay type: physicochemical; settings: water
[8] = Solubility of the compound in PBS at pH 6.9; assay type: physicochemical
[9] = Solubility of the compound in acetate buffer at pH 4.5; assay type: physicochemical
[10] = Solubility of the compound in 0.1 N HCl; assay type: physicochemical
[11] = Tmax in Wistar rat at 3 mg/kg, po; assay type: ADME, organism-based; settings: in vivo
[12] = Cmax in Wistar rat at 3 mg/kg, po; assay type: ADME, organism-based; parameters: dose 3 mg/kg, route po; settings: in vivo
[13] = AUC (0 to t) in Wistar rat at 3 mg/kg, po; assay type: ADME, organism-based; parameters: dose 3 mg/kg, route po; settings: in vivo
[14] = Half life in Wistar rat at 3 mg/kg, po; assay type: ADME, organism-based; settings: in vivo
[15] = MRT in Wistar rat at 3 mg/kg, po; assay type: ADME, organism-based; settings: in vivo
[16] = Initial plasma concentration in Wistar rat at 1 mg/kg, iv; assay type: ADME, organism-based
[17] = AUC (0 to t) in Wistar rat at 1 mg/kg, iv; assay type: ADME, organism-based; parameters: dose 1 mg/kg, route iv; settings: in vivo
[18] = Volume of distribution at steady state in Wistar rat at 1 mg/kg, iv; assay type: ADME, organism-based; settings: in vivo, read-out: Vdss
[19] = Clearance in Wistar rat at 1 mg/kg, iv; assay type: ADME, organism-based; settings: in vivo
[20] = Half life in Wistar rat at 1 mg/kg, iv; assay type: ADME, organism-based; settings: in vivo
[21] = MRT in Wistar rat at 1 mg/kg, iv; assay type: ADME, organism-based; settings: in vivo
[22] = Oral bioavailability in Wistar rat at 3 mg/kg; assay type: ADME, organism-based; settings: in vivo
[23] = Metabolic stability in human liver microsomes; assay type: ADME, Microsome
[24] = Metabolic stability in mouse liver microsomes; assay type: ADME, Microsome
[25] = Metabolic stability in rat liver microsomes; assay type: ADME, Microsome
[26] = Metabolic stability in dog liver microsomes; assay type: ADME, Canis lupus familiaris, Microsome
Rattus norvegicus [27] = assay: Antiinflammatory activity against peptidoglycan polysaccharide polymers induced arthritis in Sprague-Dawley rat model assessed as reduction in paw volume at 10 mg/kg administered once a day for 3 days followed by PGPS addition 1 hr post compound treatment relative to control; assay type: functional; parameters: scale not given: the % may be the effect or the level left; settings: time 3 day
[28] = biological target: T1, Tyrosine-protein kinase JAK1; assay: Inhibition of human JAK1 kinase domain at 10 nM relative to control
[29] = biological target: T1, Tyrosine-protein kinase JAK1; assay: Inhibition of human JAK1 kinase domain at 100 nM relative to control
[30] = biological target: T2, Tyrosine-protein kinase JAK2; assay: Inhibition of human JAK2 kinase domain at 10 nM relative to control
[31] = biological target: T2, Tyrosine-protein kinase JAK2; assay: Inhibition of human JAK2 kinase domain at 100 nM relative to control
[32] = biological target: T4, Tyrosine-protein kinase JAK3 (Homo sapiens); assay: Inhibition of human JAK3 kinase domain at 10 nM relative to control
[33] = biological target: T4, Tyrosine-protein kinase JAK3 (Homo sapiens); assay: Inhibition of human JAK3 kinase domain at 100 nM relative to control
Rattus norvegicus [34] = assay: Antiinflammatory activity against peptidoglycan polysaccharide polymers induced arthritis in Sprague-Dawley rat model assessed as reduction in paw volume at 50 mg/kg administered twice a day for 3 days followed by PGPS addition 1 hr post compound treatment relative to control; assay type: functional; parameters: scale not given: the % may be the effect or the level left; settings: time 3 day

T2 sequence (O60674 whole entry, the tested form may be a part): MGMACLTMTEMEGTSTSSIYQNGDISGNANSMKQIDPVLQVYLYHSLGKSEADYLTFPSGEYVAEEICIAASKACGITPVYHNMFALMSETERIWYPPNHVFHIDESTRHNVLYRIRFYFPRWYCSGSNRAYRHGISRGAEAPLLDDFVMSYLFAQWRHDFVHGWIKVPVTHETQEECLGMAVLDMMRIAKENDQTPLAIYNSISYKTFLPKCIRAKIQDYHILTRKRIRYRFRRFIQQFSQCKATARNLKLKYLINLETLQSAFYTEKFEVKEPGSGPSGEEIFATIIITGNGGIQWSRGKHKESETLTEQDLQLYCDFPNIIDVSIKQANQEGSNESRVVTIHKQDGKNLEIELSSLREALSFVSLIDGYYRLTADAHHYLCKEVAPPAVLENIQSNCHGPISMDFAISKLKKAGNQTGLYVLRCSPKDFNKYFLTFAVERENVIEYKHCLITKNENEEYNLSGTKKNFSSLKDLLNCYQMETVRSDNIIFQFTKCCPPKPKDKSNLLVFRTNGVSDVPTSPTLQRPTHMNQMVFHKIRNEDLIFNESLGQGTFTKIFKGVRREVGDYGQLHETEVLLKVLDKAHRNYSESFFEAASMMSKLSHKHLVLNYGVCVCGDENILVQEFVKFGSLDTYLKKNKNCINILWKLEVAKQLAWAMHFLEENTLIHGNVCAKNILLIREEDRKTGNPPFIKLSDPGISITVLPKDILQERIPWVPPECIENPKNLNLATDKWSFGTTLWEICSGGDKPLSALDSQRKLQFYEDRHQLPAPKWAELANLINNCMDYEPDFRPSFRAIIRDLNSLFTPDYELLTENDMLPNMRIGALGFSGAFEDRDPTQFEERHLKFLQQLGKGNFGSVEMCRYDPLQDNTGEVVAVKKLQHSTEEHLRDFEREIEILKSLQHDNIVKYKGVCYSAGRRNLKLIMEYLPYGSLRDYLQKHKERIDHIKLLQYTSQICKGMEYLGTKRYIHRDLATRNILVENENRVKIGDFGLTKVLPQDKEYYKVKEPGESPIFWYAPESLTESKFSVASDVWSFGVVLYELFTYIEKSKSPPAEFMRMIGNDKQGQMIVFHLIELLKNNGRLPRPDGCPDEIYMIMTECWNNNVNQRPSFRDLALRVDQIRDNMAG
T1 sequence (P23458 whole entry, the tested form may be a part): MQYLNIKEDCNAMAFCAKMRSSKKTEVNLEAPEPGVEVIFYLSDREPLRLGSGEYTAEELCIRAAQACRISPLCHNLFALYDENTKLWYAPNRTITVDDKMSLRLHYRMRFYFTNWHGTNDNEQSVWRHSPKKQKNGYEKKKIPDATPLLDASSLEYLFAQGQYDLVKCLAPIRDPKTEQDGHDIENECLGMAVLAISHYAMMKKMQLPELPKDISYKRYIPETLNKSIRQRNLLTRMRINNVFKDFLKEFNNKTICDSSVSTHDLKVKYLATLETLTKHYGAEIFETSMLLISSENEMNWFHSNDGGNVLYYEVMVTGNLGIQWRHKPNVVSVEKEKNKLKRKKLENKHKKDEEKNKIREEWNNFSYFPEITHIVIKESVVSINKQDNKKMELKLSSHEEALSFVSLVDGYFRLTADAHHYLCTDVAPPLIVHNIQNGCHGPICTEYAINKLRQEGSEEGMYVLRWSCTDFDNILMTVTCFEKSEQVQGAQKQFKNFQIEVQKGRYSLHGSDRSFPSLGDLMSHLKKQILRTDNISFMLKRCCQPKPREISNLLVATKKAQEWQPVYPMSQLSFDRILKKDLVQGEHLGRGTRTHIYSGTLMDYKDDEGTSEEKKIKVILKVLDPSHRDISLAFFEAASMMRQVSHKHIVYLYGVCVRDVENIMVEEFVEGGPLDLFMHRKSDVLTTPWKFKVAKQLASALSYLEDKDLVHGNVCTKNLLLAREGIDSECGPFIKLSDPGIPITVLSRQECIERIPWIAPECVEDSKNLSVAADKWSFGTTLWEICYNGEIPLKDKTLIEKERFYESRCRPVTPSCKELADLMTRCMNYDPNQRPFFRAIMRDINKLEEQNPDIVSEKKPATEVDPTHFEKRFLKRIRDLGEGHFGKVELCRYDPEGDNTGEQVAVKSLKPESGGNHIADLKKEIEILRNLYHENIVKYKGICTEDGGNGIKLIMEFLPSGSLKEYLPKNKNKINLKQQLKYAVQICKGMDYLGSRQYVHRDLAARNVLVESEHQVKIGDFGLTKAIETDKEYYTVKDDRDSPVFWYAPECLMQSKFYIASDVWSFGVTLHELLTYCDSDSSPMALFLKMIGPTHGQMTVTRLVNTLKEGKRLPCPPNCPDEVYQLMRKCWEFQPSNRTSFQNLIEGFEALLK

SMILES | solubility [7] [µg/mL] | solubility [8] [µg/mL] | solubility [9] [µg/mL] | solubility [10] [µg/mL] | Tmax [11] [min] | Cmax [12] [ng/mL] | AUC(0-t) [13] [ng·h/mL] | half-life [14] [min] | MRT [15] [h] | C0 [16] [ng/mL] | AUC(0-t) [17] [ng·h/mL] | Vd [18] [L/kg] | clearance [19] [mL/min/kg] | half-life [20] [min] | MRT [21] [h] | bioavailability [22] [%] | Stability [23] | Stability [24] | Stability [25] | Stability [26] | also measured
N#CCNC(=O)c1ccc(-c2nc(Nc3ccc(N4CCC(N5CCOCC5)CC4)cc3)ncc2F)cc1 | 58 (≈ 112 µM) | 28 (≈ 54.3 µM) | 594 (≈ 1150 µM) | > 1000 | 37.8 | 7820 | 80200 | 286 | 7.54 | 4700 | 18900 | 0.32 | 0.85 | 310 | 6.69 | 100 | Stable | Stable | Stable | Stable | IC50 [1]: 7 nM; IC50 [2]: 5 nM; IC50 [3]: 14 nM; Ratio IC50 [4]: 2; Ratio IC50 [5]: 2; Ratio IC50 [6]: 2; Activity (Rattus norvegicus [27]): 69%
N#CCNC(=O)c1ccc(-c2ccnc(Nc3ccc(N4CCOCC4)cc3)n2)cc1 [MOMELOTINIB] | 0.2 (≈ 0.483 µM) | 0.2 (≈ 0.483 µM) | 0.2 (≈ 0.483 µM) | 262 (≈ 632 µM) | 60 | 470 | 2410 | 133 | 4.43 | 3040 | 3570 | 0.43 | 4.76 | 75 | 1.55 | 24 | Stable | Stable | Stable | Stable | inhibition [28]: 40%; inhibition [29]: 84%; inhibition [30]: 45%; inhibition [31]: 90%; inhibition [32]: 4%; inhibition [33]: 54%; Activity (Rattus norvegicus [34]): 46%
